Test results from US20240025862A1, “SUBSTITUTED N-PHENYLURACILS AND SALTS THEREOF, AND USE THEREOF AS HERBICIDAL ACTIVE SUBSTANCES” (Bayer Aktiengesellschaft, priority 2020, published 2024).

What was measured:
Assay type in all cases: in vivo
[1] = system: Matricaria inodora (MATIN); assay: Post-emergence herbicidal action, greenhouse pot test (also comparative test C)
Protocol: (§1) Seeds of monocotyledonous and dicotyledonous weeds and crop plants were placed in sandy loam in plastic or wood-fiber pots, covered with soil and cultivated in a greenhouse under controlled growth conditions. 2 to 3 weeks after sowing, the test plants were treated at the one-leaf stage. The compounds of the invention, formulated in the form of wettable powders (WP) or as emulsion concentrates (EC), were then sprayed onto the green parts of the plants as aqueous suspension or emulsion with addition of 0.5% additive at a water application rate of 600 l/ha (converted). After the test plants had been kept in the greenhouse under optimum growth conditions for about 3 weeks, the activity of the preparations was rated visually in comparison to untreated controls. For example, 100% activity=the plants have died, 0% activity=like control plants.
(§2) Tables A1 to A14 below show the effects of selected compounds of the general formula (I) according to Tables I.1 to I.33 on various harmful plants and at an application rate corresponding to 20 g/ha and less, which were obtained by the experimental method specified above. The appendices “a”, “b” and “c” give differentiation by different dosage with otherwise the same harmful plants tested.
(§3) C. Comparative Herbicidal Action and Crop Plant Compatibility of Two Inventive Compounds (I.7-1 and I.7-115) with a Compound of Similar Structure Known from the Literature (WO2002/098227, a-17 and EP1106607, 3-14) in Post-Emergence Treatment.
(§4) Tables C1-C4 below show the effects of two inventive compounds (I.7-1 and I.7-115) together with a compound of similar structure known from the literature (a-17 in WO2002/098227, and 3-14 in EP1106607) in different crop plants at an application rate corresponding to 5 g/ha or less, which have been obtained by the aforementioned experimental procedure.

[2] = system: Triticum aestivum (TRZAS); assay: Post-emergence crop plant compatibility, greenhouse pot test; details: vs untreated controls
Protocol: as §1
(§5) The observed effects on selected crop plants are reported here in comparison to the untreated controls (values in %). The appendices “a”, “b” and “c” give differentiation by different dosage with otherwise the same crop plants tested.

Setaria viridis (SETVI) = assay: Post-emergence herbicidal action, greenhouse pot test (also comparative test C); details: for Post-emergence action against SETVI: 20 g/ha
Protocol: as §1, §2, §3, §4

[3] = system: Echinochloa crus-galli (ECHCG); assay: as above
Protocol: as §1, §2, §3, §4

[4] = system: Alopecurus myosuroides (ALOMY); assay: as above; details: for ALOMY (efficacy in %): comparative test C, application rate 5 g/ha
Protocol: as §1, §2, §3, §4

Veronica persica (VERPE) = assay: Post-emergence herbicidal action, greenhouse pot test
Protocol: as §1, §2

[5] = system: Abutilon theophrasti (ABUTH); assay: as above; details: rated visually after about 3 weeks vs untreated controls, 100% = plants have died
Protocol: as §1, §2

[6] = system: Amaranthus retroflexus (AMARE); assay: as above; details: rated visually after about 3 weeks vs untreated controls, 100% = plants have died
Protocol: as §1, §2

[7] = system: Polygonum convolvulus (POLCO); assay: as above
Protocol: as §1, §2

[8] = system: Pharbitis purpurea (PHBPU); assay: as above
Protocol: as §1, §2

Viola tricolor (VIOTR) = assay: as above
Protocol: as §1, §2

Oryza sativa (ORYSA) = assay: Post-emergence crop plant compatibility, greenhouse pot test (also comparative test C); details: for Post-emergence action against ORYSA (crop plant compatibility): vs untreated controls
Protocol: as §1, §5, §3

[9] = rated visually after about 3 weeks vs untreated controls, 100% = plants have died
[10] = comparative test C, application rate 1.25 g/ha

Compound | Post-emergence action against MATIN in % ([1]; dosage 5 g/ha) | Post-emergence action against TRZAS (crop plant compatibility) ([2]; 1.25 g/ha) | Post-emergence action against SETVI (Setaria viridis (SETVI)) | Post-emergence action against SETVI in % (Setaria viridis (SETVI); dosage 1.25 g/ha) | Post-emergence action against SETVI in % (Setaria viridis (SETVI); dosage 5 g/ha) | Post-emergence action against ECHCG in % ([3]; dosage 20 g/ha) | Post-emergence action against MATIN in % ([1]; dosage 20 g/ha) | Post-emergence action at 20 g/ha against ALOMY in % [4, 9] | Post-emergence action against VERPE (Veronica persica (VERPE); 1.25 g/ha) | Post-emergence action against VERPE (Veronica persica (VERPE); 5 g/ha) | Post-emergence action against VERPE (Veronica persica (VERPE); 20 g/ha) | Post-emergence action at 5 g/ha against ABUTH in % [5] | Post-emergence action at 20 g/ha against ABUTH in % [5] | Post-emergence action at 1.25 g/ha against AMARE in % [6] | Post-emergence action at 5 g/ha against AMARE in % [6] | Post-emergence action at 20 g/ha against AMARE in % [6] | Post-emergence action against POLCO in % ([7]; dosage 5 g/ha) | Post-emergence action against POLCO in % ([7]; dosage 20 g/ha) | Post-emergence action against PHBPU in % ([8]; dosage 1.25 g/ha) | Post-emergence action against PHBPU in % ([8]; dosage 5 g/ha) | also measured
Cn1c(C(F)(F)F)cc(=O)n(-c2cc(Oc3ccccc3OCC(=O)OCC3CCCO3)c(Cl)cc2F)c1=O (racemic) [Example 1.7-71] | 100% |  |  |  |  |  |  |  |  |  |  |  |  |  |  |  |  |  |  |  | 
COCCOCCOC(=O)COc1ccccc1Oc1cc(-n2c(=O)cc(C(F)(F)F)n(C)c2=O)c(F)cc1C#N [I.9-23] | 80% | 0% | 100% | 100% | 100% | 100% | 100% | 80% | 80% | 100% | 100% | 100% | 100% | 100% | 100% | 100% | 100% | 100% | 80% | 100% | Post-emergence action against TRZAS (crop plant compatibility) ([2]; 5 g/ha): 20%; Post-emergence action against TRZAS (crop plant compatibility) ([2]; 20 g/ha): 20%; Post-emergence action at 1.25 g/ha against ABUTH in % [5]: 80%; Post-emergence action against PHBPU in % ([8]; dosage 20 g/ha): 100%; Post-emergence action against VIOTR (Viola tricolor (VIOTR); 1.25 g/ha): 100%; Post-emergence action against VIOTR (Viola tricolor (VIOTR); 5 g/ha): 100%; Post-emergence action against VIOTR (Viola tricolor (VIOTR); 20 g/ha): 100%; Post-emergence action against ORYSA (crop plant compatibility) (Oryza sativa (ORYSA); 1.25 g/ha): 0%; Post-emergence action against ORYSA (crop plant compatibility) (Oryza sativa (ORYSA); 5 g/ha): 0%; Post-emergence action against ORYSA in % (Oryza sativa (ORYSA); 20 g/ha, crop plant compatibility): 20%
COCCOC(=O)COc1cccc(F)c1Oc1cc(-n2c(=O)cc(C(F)(F)F)n(C)c2=O)c(F)cc1Cl [I.19-1] | 90% | 20% | 100% | 100% | 100% | 100% | 100% | 100% | 100% | 100% | 100% | 100% | 100% | 100% | 100% | 100% | 100% | 100% | 100% | 100% | Post-emergence action at 1.25 g/ha against ECHCG in % ([3]; 1.25 g/ha, rated visually after about 3 weeks vs untreated controls, 100% = plants have died): 100%; Post-emergence action against ECHCG in % ([3]; dosage 5 g/ha): 100%; Post-emergence action at 1.25 g/ha against ABUTH in % [5]: 100%; Post-emergence action against PHBPU in % ([8]; dosage 20 g/ha): 100%; Post-emergence action against VIOTR (Viola tricolor (VIOTR); 1.25 g/ha): 100%; Post-emergence action against VIOTR (Viola tricolor (VIOTR); 5 g/ha): 100%; Post-emergence action against VIOTR (Viola tricolor (VIOTR); 20 g/ha): 100%
COCCOCCOC(=O)COc1cccc(F)c1Oc1cc(-n2c(=O)cc(C(F)(F)F)n(C)c2=O)c(F)cc1Cl [I.19-23] | 100% | 10% | 100% | 100% | 100% | 100% | 100% | 100% | 100% | 100% | 100% | 100% | 100% | 100% | 100% | 100% | 100% | 100% | 100% | 100% | Post-emergence action against ECHCG in % ([3]; dosage 5 g/ha): 100%; Post-emergence action at 5 g/ha against ALOMY in % ([4]; 5 g/ha, rated visually after about 3 weeks vs untreated controls, 100% = plants have died): 80%; Post-emergence action against POLCO in % ([7]; dosage 1.25 g/ha): 100%; Post-emergence action against PHBPU in % ([8]; dosage 20 g/ha): 100%; Post-emergence action against VIOTR (Viola tricolor (VIOTR); 5 g/ha): 100%; Post-emergence action against VIOTR (Viola tricolor (VIOTR); 20 g/ha): 100%; Post-emergence action against ORYSA (crop plant compatibility) (Oryza sativa (ORYSA); 1.25 g/ha): 10%
Cn1c(C(F)(F)F)cc(=O)n(-c2cc(Oc3c(F)cccc3OCC(=O)OCC#N)c(Cl)cc2F)c1=O [I.19-176] | 100% | 20% | 100% | 90% | 100% | 100% | 100% | 80% | 100% | 100% | 100% | 100% | 100% | 100% | 100% | 100% | 100% | 100% | 100% | 100% | Post-emergence action against ECHCG in % ([3]; dosage 5 g/ha): 100%; Post-emergence action at 1.25 g/ha against ABUTH in % [5]: 100%; Post-emergence action against POLCO in % ([7]; dosage 1.25 g/ha): 100%; Post-emergence action against PHBPU in % ([8]; dosage 20 g/ha): 100%; Post-emergence action against VIOTR (Viola tricolor (VIOTR); 1.25 g/ha): 80%; Post-emergence action against VIOTR (Viola tricolor (VIOTR); 5 g/ha): 100%; Post-emergence action against VIOTR (Viola tricolor (VIOTR); 20 g/ha): 100%; Post-emergence action against ORYSA (crop plant compatibility) (Oryza sativa (ORYSA); 1.25 g/ha): 0%
CCCCOC(=O)COc1ccccc1Oc1cc(-n2c(=O)cc(C(F)(F)F)n(C)c2=O)c(F)cc1Cl [a-17, reference compound] |  |  |  |  |  |  |  |  |  |  |  |  |  |  |  |  |  |  |  |  | SETVI (efficacy in %) (Setaria viridis (SETVI); [10]): 80%; ECHCG (efficacy in %) [3, 10]: 60%; MATIN (efficacy in %) [1, 10]: 30%; ORYSA (efficacy in %) (Oryza sativa (ORYSA); comparative test C, application rate 1.25 g/ha, crop plant compatibility): 20%
COCCOC(=O)COc1ccccc1Oc1cc(-n2c(=O)cc(C(F)(F)F)n(C)c2=O)c(F)cc1Cl [drawing 110] |  |  |  |  |  |  |  |  |  |  |  |  |  |  |  |  |  |  |  |  | ALOMY (efficacy in %) [4]: 80%
Cn1c(C(F)(F)F)cc(=O)n(-c2cc(Oc3ccccc3OCC(=O)OC3COC3)c(Cl)cc2F)c1=O [drawing 111] |  |  |  |  |  |  |  |  |  |  |  |  |  |  |  |  |  |  |  |  | ALOMY (efficacy in %) [4]: 100%
CCCCOC(=O)COc1ccccc1Oc1cc(-n2c(=O)cc(C(F)(F)F)n(C)c2=O)c(F)cc1Cl [drawing 112] |  |  |  |  |  |  |  |  |  |  |  |  |  |  |  |  |  |  |  |  | ALOMY (efficacy in %) [4]: 30%
